# Laboratory results as given in patent publication US12502390B2, “Compositions comprising tigolaner for controlling parasites” ([…], priority 2019, dated 2025).
# Like-named read-outs stand apart in the source and are kept apart here.
# What was measured:
# Boophilus microplus [1] = details: Boophilus microplus dip test; 100 ppm; cited from earlier work
# Boophilus microplus [2] = details: Boophilus microplus injection test; 20 μg/tick; cited from earlier work
# Ixodes ricinus = Ixodes ricinus contact test; 1 μg/cm^2; cited from earlier work
# Amblyomma hebraeum [3] = details: Amblyomma hebraeum contact test; 1 μg/cm^2; cited from earlier work
# Lucilia cuprina = details: 100 ppm; cited from earlier work
# Ctenocephalides felis [4] = details: rats, application rate 10 mg/kg, cited from earlier work
# [5] = Solubility of tigolaner in solketal (1,2-isopropylideneglycerol); assay type: physicochemical
# Text: In another embodiment of the composition the solvent component comprises only 1,2-isopropylideneglycerol.
# Dermacentor variabilis = details: rats; day 2; application rate 10 mg/kg; cited from earlier work
# Ctenocephalides felis [6] = details: Ctenocephalides felis oral test; 100 ppm; cited from earlier work
# Rhipicephalus sanguineus = Rhipicephalus sanguineus contact test; 1 μg/cm^2; cited from earlier work
# Ctenocephalides felis [7] = details: Ctenocephalides felis contact test; 1 μg/cm^2; cited from earlier work
# Musca domestica = details: 100 ppm; cited from earlier work
# Amblyomma hebraeum [8] = details: 100 ppm; cited from earlier work
smiles,measurement,setting,value
Cn1nc(C(F)(F)C(F)(F)F)c(C(F)(F)F)c1-n1cc(-c2ccc(Cl)c(C(=O)NC3(C#N)CC3)c2)cn1 [Tigolaner],efficacy,Boophilus microplus [1],100%
same,efficacy,Boophilus microplus [2],100%
same,efficacy,Ixodes ricinus,100%
same,efficacy,Amblyomma hebraeum [3],100%
same,efficacy,Lucilia cuprina,100%
same,efficacy against fleas,Ctenocephalides felis [4]; day 2,> 95%
same,efficacy against fleas,Ctenocephalides felis [4]; day 9,> 90%
same,solubility of tigolaner in solketal in the presence of praziquantel,"[5]; in the presence of praziquantel, in particular of 7.5 to 8.5% w/w of praziquantel",more than 10.5 % w/w
same,"effect of lactic acid on solubility of tigolaner in 1,2-isopropylideneglycerol",[5]; presence of lactic acid,slightly lowers the solubility
same,solubility of tigolaner in solketal alone,[5]; solketal alone,9.5-9.9 % w/w
same,efficacy against tick nymphs,Dermacentor variabilis,> 90%
same,efficacy,Ctenocephalides felis [6],100%
same,efficacy,Rhipicephalus sanguineus,100%
same,efficacy,Ctenocephalides felis [7],100%
same,efficacy,Musca domestica,100%
same,efficacy,Amblyomma hebraeum [8],100%
